Where two headings read alike, the source gives them in different places.
Assays:
[1] = tested on: H3K27me3 mark in HeLa cells (EZH2); test: H3K27me3 Alpha Hela Assay (AlphaLISA); type: cell-based
Description: H3K27me3 Alpha Hela Assay (AlphaLISA). Ten different doses of each test compound (in a series of 3-fold dilutions) were plated in duplicate 384-well tissue culture treated plates (Catalog #6007680; Perkin Elmer, Waltham, Mass.). Hela cells grown in culture were trypsinized and counted using a Countess® cell counter (Catalog #C10281; Life Technologies, Grand Island, N.Y.). Cell were diluted to 67,000 cells per mL in 10% DMEM (Catalog #10569-010 Life Technologies, Grand Island, N.Y.) and 15 μL (1,000 cells) were plated into each well using the Biotek MicroFlo™ Select Dispenser (BioTek Instruments, Inc. Vermont, USA),) of the 384-well plate. Plates were incubated at 37° C./5% CO2 for 72 hrs. One of the duplicate plates was processed for HeLa assay and the other for viability.
5 μL of Cell-Histone Lysis buffer (1×) (Catalog #AL009F1 Perkin Elmer; Waltham, Mass.) per well was added to the plate processed for AlphaLISA and the plate was incubated at RT for 30 minutes on a plate shaker with low speed (Model #4625-Q Thermo Scientific; Waltham, Mass.). Then, 10 μL per well Histone Extraction buffer (catalog #AL009F2; Perkin Elmer; Waltham, Mass.) was added and the plate further incubated at RT for 20 min on plate shaker with low speed. Next, 10 μL of 5× mix of anti-K27me3 acceptor beads plus Biotinylated anti-Histone H3 (C-ter) Antibody (diluted to 3 nM final) (Catalog #AL118 Perkin Elmer; Waltham, Mass.) was added in each well. Dilution of the acceptor beads and anti-Histone H3 was done in 1× Histone Detection buffer (Catalog #AL009F3 Perkin Elmer; Waltham, Mass.) which was produced by diluting the 10× stock provided. The plate was sealed with an aluminum plate sealer and incubated at 23° C. for 60 min. Next, 10 μL 5× solution of Streptavidin Donor beads were added (Catalog #6760002 Perkin Elmer; Waltham, Mass.) (20 μg/mL final in 1× Histone Detection Buffer), =plate was sealed with Aluminum plate sealer and incubated at 23° C. for 30 min. The plates were then read using an EnVision-Alpha Reader (model #2104 Perkin Elmer; Waltham, Mass.).
Data from both assays was analyzed using Genedata (Basel, Switzerland). Data files were imported to Genedata and assay conditions were specified. A unique Analysis ID was created and the data files analysed to measure dose-dependent inhibition of H3K27me3 mark and cell viability respectively. Readout of DMSO wells were used to normalize the data. Resulting curves were fitted using Smart fit application (Genedata; Basel, Switzerland). The data was checked for quality, validated and integrated in excel format using Stardrop (Optibruim, Cambridge, UK).
EC50 values are reported as follows: “A” indicates an EC50 value of less than 10 nM; “B” indicates an EC50 value of 10 nM to 100 nM; “C” indicates an EC50 value of greater than 100 nM; and “ND” is not determined.

[2] = target: PRC2 containing wt EZH2 (Homo sapiens (Human), UniProt Q15910); test: EZH2 biochemical assay (IC50), 3H-SAM incorporation into biotinylated H3 peptide
Description: EZH2 biochemical assay (IC50): Compound potencies were assessed through incorporation of ^3H-SAM into a biotinylated H3 peptide. Specifically, 30 pM PRC2 containing wt EZH2 (pentameric complex prepared in-house) was pre-incubated with 450 nM SAM, 450 nM ^3H-SAM, 2 μM H3K27me3 activating peptide (H2N-[…](Kme3)[…]-amide) and compounds (as 10 point duplicate dose response titrations in DMSO, final assay 0.8% DMSO (v/v)) for 3-5 h in 50 mM Tris (pH 8.5), 1 mM DTT, 0.07 mM Brij-35, 0.1% BSA, and 0.8% DMSO in a total volume of 12.5 μl. Reaction was initiated with biotinylated H3 substrate peptide (H2N-[…](Kme1)[…]-NTPEGBiot) as a 2 μM stock in 12.5 μl of buffer and allowed to react at room temperature for 18-22 h. Quenching was accomplished by addition of 20 μl of STOP solution (50 mM Tris (pH 8.5), 200 mM EDTA, 2 mM SAH). 35 μl of the quenched solution was transferred to streptavidin coated FlashPlates (PerkinElmer), incubated 1-2 h, washed, and read in a TopCount Reader (PerkinElmer). IC50s were calculated in Genedata Screener using non-linear least square four parameter fits, where the four parameters were IC50, Hill slope, pre-transitional baseline (0% INH), and post-transitional baseline (100% INH).
IC50 values are reported as follows: “A” indicates an IC50 value of less than 0.5 nM; “B” indicates an IC50 value of 0.5 nM to 5 nM; “C” indicates an IC50 value of greater than 5 nM for each enzyme; and “ND” is not determined.

[3] = Homo sapiens, HeLa, 72 h, HeLa cells, 72 hrs, read-out: EZH2 Cell H3K27me3 Alpha HeLa (EC50 K27me3)
[4] = EZH2 (IC50), 30 pM PRC2 containing wt EZH2; 3-5 h pre-incubation
[5] = 30 pM PRC2 containing wt EZH2; 3-5 h pre-incubation; read-out: EZH2 (IC50)
[6] = HeLa cells, 72 hrs, read-out: EZH2 Cell H3K27me3 Alpha HeLa (EC50 K27me3)
[7] = read-out: EZH2 (IC50); 30 pM PRC2 containing wt EZH2; 3-5 h pre-incubation
[8] = HeLa cell assay, Table 3 classes, read-out: EC50 Cellular Activity
[9] = Homo sapiens, HeLa, HeLa cell assay, Table 3 classes, read-out: EC50 Cellular Activity

PRC2 containing wt EZH2, sequence (Q15910 whole entry): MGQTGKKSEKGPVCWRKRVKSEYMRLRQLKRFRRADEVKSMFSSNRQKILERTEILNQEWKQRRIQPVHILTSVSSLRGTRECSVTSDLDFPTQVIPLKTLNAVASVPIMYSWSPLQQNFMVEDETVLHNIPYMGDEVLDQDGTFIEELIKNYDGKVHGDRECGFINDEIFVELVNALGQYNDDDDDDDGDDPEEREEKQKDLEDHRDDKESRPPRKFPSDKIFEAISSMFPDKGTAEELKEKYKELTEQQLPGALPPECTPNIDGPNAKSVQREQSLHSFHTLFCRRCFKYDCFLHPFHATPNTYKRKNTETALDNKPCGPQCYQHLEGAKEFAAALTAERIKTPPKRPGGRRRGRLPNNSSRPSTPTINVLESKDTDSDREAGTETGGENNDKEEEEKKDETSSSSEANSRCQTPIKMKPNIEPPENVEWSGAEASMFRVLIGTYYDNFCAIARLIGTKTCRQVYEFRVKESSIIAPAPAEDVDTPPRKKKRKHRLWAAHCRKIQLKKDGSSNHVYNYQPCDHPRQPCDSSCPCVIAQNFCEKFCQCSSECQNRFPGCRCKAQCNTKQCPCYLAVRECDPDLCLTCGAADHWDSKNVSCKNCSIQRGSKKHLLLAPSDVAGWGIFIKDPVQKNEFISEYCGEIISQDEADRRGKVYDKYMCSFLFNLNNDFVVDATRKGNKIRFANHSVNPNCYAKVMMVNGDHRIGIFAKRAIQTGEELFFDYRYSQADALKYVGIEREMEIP
PRC2 containing wt EZH2, sequence (O75530 whole entry partner): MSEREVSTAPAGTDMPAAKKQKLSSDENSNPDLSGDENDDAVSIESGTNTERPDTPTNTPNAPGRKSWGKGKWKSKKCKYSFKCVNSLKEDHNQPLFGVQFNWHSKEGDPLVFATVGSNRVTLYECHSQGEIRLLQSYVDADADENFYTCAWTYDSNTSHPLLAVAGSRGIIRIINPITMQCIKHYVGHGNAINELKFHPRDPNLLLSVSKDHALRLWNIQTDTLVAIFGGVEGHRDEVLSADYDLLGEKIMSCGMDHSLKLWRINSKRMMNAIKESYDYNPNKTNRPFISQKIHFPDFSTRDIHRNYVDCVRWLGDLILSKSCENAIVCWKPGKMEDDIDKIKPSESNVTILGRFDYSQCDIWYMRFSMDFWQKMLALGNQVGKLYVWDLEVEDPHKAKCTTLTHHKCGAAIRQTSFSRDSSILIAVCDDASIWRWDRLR
PRC2 containing wt EZH2, sequence (Q15022 whole entry partner): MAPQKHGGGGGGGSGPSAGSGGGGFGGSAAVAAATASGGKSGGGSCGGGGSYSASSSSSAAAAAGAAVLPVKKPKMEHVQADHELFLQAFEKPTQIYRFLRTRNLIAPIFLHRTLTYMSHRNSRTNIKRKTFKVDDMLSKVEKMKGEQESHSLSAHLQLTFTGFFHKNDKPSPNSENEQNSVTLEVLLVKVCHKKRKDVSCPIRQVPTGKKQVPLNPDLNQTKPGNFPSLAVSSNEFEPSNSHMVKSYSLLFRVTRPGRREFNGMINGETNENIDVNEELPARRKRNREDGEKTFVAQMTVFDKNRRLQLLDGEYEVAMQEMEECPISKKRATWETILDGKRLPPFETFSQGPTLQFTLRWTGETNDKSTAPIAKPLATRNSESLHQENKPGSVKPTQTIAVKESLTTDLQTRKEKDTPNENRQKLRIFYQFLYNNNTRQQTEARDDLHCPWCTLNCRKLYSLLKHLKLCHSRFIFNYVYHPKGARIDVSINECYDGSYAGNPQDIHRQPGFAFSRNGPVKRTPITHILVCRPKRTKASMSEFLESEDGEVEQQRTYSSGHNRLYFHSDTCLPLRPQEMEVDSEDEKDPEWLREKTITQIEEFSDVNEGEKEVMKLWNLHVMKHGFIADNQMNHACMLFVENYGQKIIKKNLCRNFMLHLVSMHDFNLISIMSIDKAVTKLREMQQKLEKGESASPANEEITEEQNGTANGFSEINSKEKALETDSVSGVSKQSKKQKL
PRC2 containing wt EZH2, sequence (Q09028 whole entry partner): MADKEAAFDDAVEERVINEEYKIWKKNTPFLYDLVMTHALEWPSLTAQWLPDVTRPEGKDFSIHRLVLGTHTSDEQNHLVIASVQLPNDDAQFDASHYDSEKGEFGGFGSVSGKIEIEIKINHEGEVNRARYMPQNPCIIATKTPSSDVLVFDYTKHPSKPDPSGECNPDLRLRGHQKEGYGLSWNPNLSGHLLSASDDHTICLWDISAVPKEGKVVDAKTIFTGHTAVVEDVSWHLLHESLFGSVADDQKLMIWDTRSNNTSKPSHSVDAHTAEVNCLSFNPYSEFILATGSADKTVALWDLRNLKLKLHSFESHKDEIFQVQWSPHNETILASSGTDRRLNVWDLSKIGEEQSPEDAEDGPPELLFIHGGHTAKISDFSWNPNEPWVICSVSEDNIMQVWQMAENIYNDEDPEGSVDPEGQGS
PRC2 containing wt EZH2, sequence (Q6ZN18 whole entry partner): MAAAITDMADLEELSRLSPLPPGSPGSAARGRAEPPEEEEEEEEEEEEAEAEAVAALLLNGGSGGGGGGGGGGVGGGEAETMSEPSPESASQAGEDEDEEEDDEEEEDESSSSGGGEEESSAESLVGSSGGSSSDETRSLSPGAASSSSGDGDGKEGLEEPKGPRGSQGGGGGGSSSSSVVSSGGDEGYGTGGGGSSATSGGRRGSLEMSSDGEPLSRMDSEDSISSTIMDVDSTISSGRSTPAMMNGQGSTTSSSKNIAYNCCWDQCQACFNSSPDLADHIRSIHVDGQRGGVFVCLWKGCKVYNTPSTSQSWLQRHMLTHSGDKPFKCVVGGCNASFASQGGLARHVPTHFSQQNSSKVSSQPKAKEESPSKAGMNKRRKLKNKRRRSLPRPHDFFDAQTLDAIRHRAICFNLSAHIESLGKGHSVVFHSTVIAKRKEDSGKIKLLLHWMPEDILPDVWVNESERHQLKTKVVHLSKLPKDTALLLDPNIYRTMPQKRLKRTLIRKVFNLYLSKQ

With `CSc1cc(C)[nH]c(=O)c1CNC(=O)c1c(C)n([C@H](C)C2CCN(C3CC3)CC2)c2ncccc12` [Example 26, (R)-1-(1-(1-cyclopropylpiperidin-4-yl)ethyl)-2-methyl-N-((6-methyl-4-(methylthio)-2-oxo-1,2-dihydropyridin-3-yl)methyl)-1H-pyrrolo[2,3-b]pyridine-3-carboxamide] the EC50 [1, 3] was less than 10 nM and the IC50 [2, 4] was less than 0.5 nM.

`CSc1cc(C)[nH]c(=O)c1CNC(=O)c1c(C)n([C@H](C)C2CCC(NC3(C(F)(F)F)COC3)CC2)c2ccccc12` (single isomer, unassigned) [Example 130] was tested, and the EC50 [1, 3] was less than 10 nM and the IC50 [2, 5] was less than 0.5 nM.

`CSc1cc(C)[nH]c(=O)c1CNC(=O)c1c(C)n([C@H](C)C2CCN(C3CC3)CC2)c2ncc(Cl)cc12` [Example 69, (R)-5-chloro-1-(1-(1-cyclopropylpiperidin-4-yl)ethyl)-2-methyl-N-((6-methyl-4-(methylthio)-2-oxo-1,2-dihydropyridin-3-yl)methyl)-1H-pyrrolo[2,3-b]pyridine-3-carboxamide] was tested, and the EC50 [1, 3] was less than 10 nM and the IC50 [2, 4] was less than 0.5 nM.

`CSc1cc(C)[nH]c(=O)c1CNC(=O)c1c(C)n([C@H](C)C2CCN(C3CC(F)C3)CC2)c2ccccc12` (single isomer, unassigned) [64 (isomer 2)] was tested, and the EC50 [1, 6] was 10 to 100 nM and the IC50 [2, 7] was less than 0.5 nM.

`CSc1cc(C)[nH]c(=O)c1CNC(=O)c1c(C)n([C@H](C)C2CCC(NC3(C(F)(F)F)COC3)CC2)c2ncncc12` (single isomer, unassigned) [164 (isomer 2)] gave an EC50 [1, 6] of 10 to 100 nM and an IC50 [2, 5] of 0.5 to 5 nM.

`CSc1cc(C)[nH]c(=O)c1CNC(=O)c1c(C)n([C@H](C)C2CCC(NC3(C(F)(F)F)COC3)CC2)c2ncccc12` (single isomer, unassigned) [163 (isomer 1)] showed an EC50 [1, 3] of less than 10 nM and an IC50 [2, 5] of less than 0.5 nM.

For `CSc1cc(C)[nH]c(=O)c1CNC(=O)c1c(C)n([C@H](C)C2CCC(N3CC(OC4CC4)C3)CC2)c2ncc(F)cc12` (single isomer, unassigned) [28 (isomer 1)], the EC50 [1, 3] was less than 10 nM and the IC50 [2, 5] was less than 0.5 nM.

With `CSc1cc(C)[nH]c(=O)c1CNC(=O)c1c(C)n([C@H](C)C2OCC(N(C)C)CO2)c2ccccc12` (single isomer, unassigned) [7 (isomer 1)] the EC50 [1, 6] was greater than 100 nM and the IC50 [2, 5] was 0.5 to 5 nM.

Work on `CSc1cc(C)[nH]c(=O)c1CNC(=O)c1c(C)n([C@H](C)C2CCN(C3CC3)CC2)c2ncc(F)cc12` [Example 58, (R)-1-(1-(1-cyclopropylpiperidin-4-yl)ethyl)-5-fluoro-2-methyl-N-((6-methyl-4-(methylthio)-2-oxo-1,2-dihydropyridin-3-yl)methyl)-1H-pyrrolo[2,3-b]pyridine-3-carboxamide] yielded an EC50 [1, 3] of less than 10 nM and an IC50 [2, 4] of less than 0.5 nM.

For `CSc1cc(C)[nH]c(=O)c1CNC(=O)c1c(C)n([C@H](C)C2CCC(O)CC2)c2ccccc12` (single isomer, unassigned) [19 (isomer 2)], the EC50 [1, 6] was less than 10 nM and the IC50 [2, 7] was less than 0.5 nM.

For `CO[C@@H]1CN(C2CCC([C@@H](C)n3c(C)c(C(=O)NCc4c(SC)cc(C)[nH]c4=O)c4cccnc43)CC2)C[C@H]1F` (single isomer, unassigned) [104 (isomer 2)], the EC50 [1, 6] was greater than 100 nM and the IC50 [2, 5] was 0.5 to 5 nM.

For `CSc1cc(C)[nH]c(=O)c1CNC(=O)c1c(C)n([C@H](C)C2CCC(N3CC(F)C3)CC2)c2c(F)cccc12` (stereo partly drawn) [Example 82, 7-fluoro-1-((R)-1-(4-(3-fluoroazetidin-1-yl)cyclohexyl)ethyl)-2-methyl-N-((6-methyl-4-(methylthio)-2-oxo-1,2-dihydropyridin-3-yl)methyl)-1H-indole-3-carboxamide], the EC50 [1, 3] was less than 10 nM and the IC50 [2, 4] was less than 0.5 nM.

For `CSc1cc(C)[nH]c(=O)c1CNC(=O)c1c(C)n([C@H](C)C2CCC(N3CC(O)C3)CC2)c2ccccc12` (stereo partly drawn) [Example 136, (R)-1-(1-(4-(3-hydroxyazetidin-1-yl)cyclohexyl)ethyl)-2-methyl-N-((6-methyl-4-(methylthio)-2-oxo-1,2-dihydropyridin-3-yl)methyl)-1H-indole-3-carboxamide], the EC50 [1, 3] was greater than 100 nM and the IC50 [2, 4] was less than 0.5 nM.

For `CSc1cc(C)[nH]c(=O)c1CNC(=O)c1c(C)n([C@H](C)C2CCC(NC3(CF)COC3)CC2)c2ccccc12` (single isomer, unassigned) [154 (isomer 2)], the EC50 [1, 6] was less than 10 nM and the IC50 [2, 5] was less than 0.5 nM.

Molecule `CSc1cc(C)[nH]c(=O)c1CNC(=O)c1c(C)n([C@H](C)C2CCC(N3CC34COC4)CC2)c2ncccc12` (single isomer, unassigned) [139 (isomer 2)] has an EC50 [1, 6] of 10 to 100 nM and an IC50 [2, 4] of 0.5 to 5 nM.

`CSc1cc(C)[nH]c(=O)c1CNC(=O)c1c(C)n([C@H](C)C2CCN(C3CC3)CC2)c2ncncc12` [Example 50, (R)-7-(1-(1-cyclopropylpiperidin-4-yl)ethyl)-6-methyl-N-((6-methyl-4-(methylthio)-2-oxo-1,2-dihydropyridin-3-yl)methyl)-7H-pyrrolo[2,3-d]pyrimidine-5-carboxamide] was tested, and the EC50 [1, 3] was less than 10 nM and the IC50 [2, 4] was less than 0.5 nM.

In the case of `COC1CN(C2CCC([C@@H](C)n3c(C)c(C(=O)NCc4c(SC)cc(C)[nH]c4=O)c4cccnc43)CC2)C1` (single isomer, unassigned) [drawing 260], the EC50 [1, 8] is reported as greater than 125 nM.

Molecule `COc1cc(C)[nH]c(=O)c1CNC(=O)c1c(C)n([C@H](C)C2CCOCC2)c2ccccc12` has an EC50 [1, 9] of 25 to 125 nM.

Work on `CCOC1CN(C2CCC([C@@H](C)n3c(C)c(C(=O)NCc4c(SC)cc(C)[nH]c4=O)c4cccnc43)CC2)C1` (single isomer, unassigned) [drawing 262] yielded an EC50 [1, 8] of 25 to 125 nM.

Work on `Cc1cc(C)c(CNC(=O)c2c(C)n([C@H](C)C3CCOCC3)c3ccccc23)c(=O)[nH]1` yielded an EC50 [1, 9] of 25 to 125 nM.

`COc1cnc2c(c1)c(C(=O)NCc1c(SC)cc(C)[nH]c1=O)c(C)n2[C@H](C)C1CCC(N2CC(OC(F)F)C2)CC1` (single isomer, unassigned) [125 (isomer 2)] showed an IC50 [2, 5] of less than 0.5 nM.

`Cc1cc(Cl)c(CNC(=O)c2c(C)n([C@H](C)C3OCC(NC(C)(C)C)CO3)c3ccccc23)c(=O)[nH]1` (single isomer, unassigned) [drawing 222] was tested, and the EC50 [1, 8] was 5 to 25 nM.

Work on `CSc1cc(C)[nH]c(=O)c1CNC(=O)c1c(C)n([C@H](C)C2CCC(NC3(C)CCOC3)CC2)c2ccccc12` (single isomer, unassigned) [drawing 270] yielded an EC50 [1, 8] of 25 to 125 nM.

Work on `CSc1cc(C)[nH]c(=O)c1CNC(=O)c1c(C)n([C@H](C)C2CCC(N3CC(OC(F)F)C3)CC2)c2ccccc12` (single isomer, unassigned) [drawing 253] yielded an EC50 [1, 8] of 5 to 25 nM.

`COC1CCC([C@@H](C)n2c(C)c(C(=O)NCc3c(SC)cc(C)[nH]c3=O)c3ccccc32)CC1` (single isomer, unassigned) [drawing 249] showed an EC50 [1, 9] of less than 5 nM.
